Where “and” joins values, the source holds several entries; their conditions need not be identical. Identical values can stand only once. Like-named read-outs stand apart in the source and are kept apart here. Some results are limits rather than exact numbers.

Here are results for 6 compounds from US11850306B2, “Method for drying hydrogel comprising nanofibrillar cellulose and a dried hydrogel comprising nanofibrillar cellulose” (UPM-KYMMENE CORPORATION, priority 2016, dated 2023).

The nature of series [1]: In vitro release studies: diffusion coefficients of model compounds from NFC hydrogels. The following applies: for Diffusion coefficient in NFC-hydrogels: pH 7.4, 37° C. Type of series: physicochemical. The protocol: In vitro drug release studies were performed with modified intrinsic dissolution disc dies filled with 1.07 g of formulations with a constant flat surface area of 1.33 cm^2. Discs were placed in 150 ml amber glass vessels on top of a holder. The vessels were filled to a final volume of 70 ml with pH 7.4 phosphate buffered saline (1×DPBS) and kept at 37° C. under constant magnetic stirring (400 rpm) on top of a multi-position magnetic stirrer IKA RT10 (IKA-Werke GmbH & Co KG, Germany). […] All experiments were done in triplicate.
The flow rate was 0.5 ml/min and the injection volume 5 μl. […] During the gradient run the mobile phase consisted of a mixture of acetonitrile and 15 mM phosphate buffer pH 2 in 25:75 ratio at 0-3 min. After 3 min the mobile phase composition was changed to 75:25 ratio. […] For nadolol, the used column was HSS-T3 1.8 μm (2.1×50 mm) (Waters, USA) at 30° C. The flow rate was 0.5 ml/min and the injection volume 5 μl. […] During the gradient run the mobile phase consisted of a mixture of acetonitrile and 15 mM phosphate buffer pH 2 in 10:90 ratio at 0-3 min. After 3 min the mobile phase composition was changed to 50:50 ratio.
200 μl of samples were pipetted into wells of 96-well OptiPlate plates (PerkinElmer, Finland). Excitation wavelength 490 nm, emission wavelength 520 nm and 12 nm bandwidth were used.
For metronidazole, absorbance was measured in 1 cm cell at 320 nm with 12 nm bandwidth against blank.
Sample and reagent were mixed thoroughly with a multi-channel pipet and incubated for 20 minutes at room temperature before absorbance measurement.
Mathematical equations were used for the modelling of diffusion controlled drug release that take into consideration structure of the device, the ratio of initial drug concentration to drug solubility and the device geometry. The diffusion coefficients were calculated by Higuchi equation (1) for small molecules with a presumption that these systems could be described as monolithic dispersions (Equations 1 and 2 below). For large molecules (1 kDa) equations we used to solve Fick's second law of diffusion and diffusion coefficients (2) with a presumption that these systems could be described as monolithic solutions (FIG. 2).
In vitro drug release studies were performed with modified intrinsic dissolution disc dies filled with 1.07 g of formulations with a constant flat surface area of 1.33 cm2. Discs were placed in 150 ml amber glass vessels on top of a holder. The vessels were filled to a final volume of 70 ml with pH 7.4 phosphate buffered saline (1×DPBS) and kept at 37° C. under constant magnetic stirring (400 rpm) on top of a multi-position magnetic stirrer IKA RT10 (IKA-Werke GmbH & Co KG, Germany). […] All experiments were done in triplicate.

The conditions of series [2]: nitrogen; cited from earlier work.
The conditions of series [3]: cited from earlier work.
For series [4] the following is noted: cited from earlier work; for Solubility in aqueous media (intrinsic solubility): 25° C.
Setting [5] is: 3% NFC/exp (PEG6000 and trehalose), before freeze drying.
Setting [6] is: 6.5% NFC/exp (PEG6000 and trehalose), before freeze drying.
Setting [7] is: FD 3% NFC/exp, freeze dried and redispersed.
The mark [8] stands for this setting: FD 6.5% NFC/exp, freeze dried and redispersed.

Consider `CC(C(=O)O)c1cccc(C(=O)c2ccccc2)c1` (stereo not drawn) [Ketoprofen], for which the “Diffusion coefficients for model compounds in different NFC hydrogels” value in series [1] (3% NFC, no excipients) was 152.62 10^−8 cm^2/s; in series [1] (setting [5]), 147.15 10^−8 cm^2/s; in series [1] (6.5% NFC, no excipients), 141.86 10^−8 cm^2/s; in series [1] (setting [6]), 141.20 10^−8 cm^2/s; in series [1] (setting [7]) it was 129.97 10^−8 cm^2/s; in series [1] (setting [8]) it was 124.44 10^−8 cm^2/s. For the same compound, the “Diffusion coefficient in NFC-hydrogels” value in series [1] (NFC hydrogel 11804-3 (3.2%)) is 152.62 10^−8 cm^2/s; in series [1] (NFC hydrogel 11814-1 (5.7%)), 131.41 10^−8 cm^2/s; in series [1] (NFC hydrogel 11814-3 (5.7%)), 148.23 10^−8 cm^2/s; in series [1] (NFC hydrogel 11815-3 (6.8%)), 141.86 10^−8 cm^2/s.
As for `Cc1ncc([N+](=O)[O-])n1CCO` [Metronidazole], the “Onset degradation temp Td, N2” value in series [2] is 160 °C. For the same compound, the “Charge at pH 7.0” value in series [3] (pH 7.0) was “ø”. For the same compound, the “Charge of compounds at pH 7.4” value in series [3] (pH 7.4) is listed as “Metronidazole (ø)”. The “Solubility in aqueous media (intrinsic solubility)” value in series [4] is 10.5 (25° C.), mg/ml and 10.5 mg/ml. The “Solubility in aqueous media” value in series [4] (pH 7) was 10.5 (pH 7) mg/ml. Further, the “Diffusion coefficients for model compounds in different NFC hydrogels” value was 716.99 10^−8 cm^2/s in series [1] (3% NFC, no excipients); 657.41 10^−8 cm^2/s in series [1] (setting [5]); 617.51 10^−8 cm^2/s in series [1] (6.5% NFC, no excipients); 617.16 10^−8 cm^2/s in series [1] (setting [6]); 699.10 10^−8 cm^2/s in series [1] (setting [7]); 660.18 10^−8 cm^2/s in series [1] (setting [8]). Further, the “Diffusion coefficient in NFC-hydrogels” value in series [1] (NFC hydrogel 11804-3 (3.2%)) is 716.99 10^−8 cm^2/s; in series [1] (NFC hydrogel 11814-1 (5.7%)), 609.51 10^−8 cm^2/s; in series [1] (NFC hydrogel 11814-3 (5.7%)) it was 551.09 10^−8 cm^2/s; in series [1] (NFC hydrogel 11815-3 (6.8%)), 617.51 10^−8 cm^2/s.
For `CC(C)(C)NCC(O)COc1cccc2c1CC(O)C(O)C2` (stereo not drawn) [Nadolol], in series [2], the “Onset degradation temp Td, N2” value was 196.2 °C. Moreover, in series [3], the pKa/pI is reported as 9.28. Further, the “Solubility in aqueous media (intrinsic solubility)” value in series [4] was 8.3 (25° C.), mg/ml. For the same compound, in series [4] (pH 7), the “Solubility in aqueous media” value is on record as 8.3 (pH 7) mg/ml. The “Diffusion coefficients for model compounds in different NFC hydrogels” value is reported as 286.24 10^−8 cm^2/s in series [1] (3% NFC, no excipients); 292.92 10^−8 cm^2/s in series [1] (setting [5]); 230.62 10^−8 cm^2/s in series [1] (6.5% NFC, no excipients); 245.04 10^−8 cm^2/s in series [1] (setting [6]); 296.36 10^−8 cm^2/s in series [1] (setting [7]); 267.21 10^−8 cm^2/s in series [1] (setting [8]). For the same compound, the “Diffusion coefficient in NFC-hydrogels” value in series [1] (NFC hydrogel 11804-3 (3.2%)) is 286.24 10^−8 cm^2/s; in series [1] (NFC hydrogel 11814-1 (5.7%)), 273.21 10^−8 cm^2/s; in series [1] (NFC hydrogel 11814-3 (5.7%)), 287.50 10^−8 cm^2/s; in series [1] (NFC hydrogel 11815-3 (6.8%)), 230.62 10^−8 cm^2/s.
Consider `OC[C@H]1O[C@H](O[C@H]2O[C@H](CO)[C@@H](O)[C@H](O)[C@H]2O)[C@H](O)[C@@H](O)[C@@H]1O` [Trehalose, D-(+)-trehalose dihydrate], for which, in series [2], the “Onset degradation temp Td, N2” value was 230 °C.
Regarding “Lysozyme: Lysozyme from hen egg white, 14.7 kDa model compound”, the “Solubility in aqueous media” value in series [4] (condition not given) is over 10 mg/mL. For the same compound, the “Diffusion coefficients for model compounds in different NFC hydrogels” value in series [1] (3% NFC, no excipients) is on record as 3.53 10^−8 cm^2/s; in series [1] (6.5% NFC, no excipients), 1.75 10^−8 cm^2/s. Also, the “Diffusion coefficient in NFC-hydrogels” value in series [1] (NFC hydrogel 11804-3 (3.2%)) is listed as 3.53 10^−8 cm^2/s; in series [1] (NFC hydrogel 11814-1 (5.7%)) it was 1.79 10^−8 cm^2/s; in series [1] (NFC hydrogel 11814-3 (5.7%)), 2.57 10^−8 cm^2/s; in series [1] (NFC hydrogel 11815-3 (6.8%)), 1.75 10^−8 cm^2/s.
Polyethylene glycol 6000 [PEG 6000]: in series [2], the “Onset degradation temp Td, N2” value is 257 °C.
